From US6479480B1, “Phenylindole derivatives as 5-ht2a receptor ligands” (Merck Sharp & Dohme Ltd., priority 1998, dated 2002)

Test system: not given
Settings: not given

SMILES | melting point [°C]
O=C(O)C(=O)O.c1ccc(CN2CCCC2Cc2c(-c3ccccc3)[nH]c3ccccc23)cc1 (centres unmarked) | 210
O=C(O)C(=O)O.c1ccc(CN2CCC(Cc3c(-c4ccccc4)[nH]c4ccccc34)C2)cc1 (centres unmarked) | 95
CN1CCCC[C@H]1Cc1c(-c2ccccc2)[nH]c2ccccc12 | 135
CN1CCC(Cc2c(-c3ccccc3)[nH]c3ccccc23)C1.O=C(O)C(=O)O (centres unmarked) | 80
CCN1CCCCC1Cc1c(-c2ccccc2)[nH]c2ccccc12.O=C(O)C(=O)O (centres unmarked) | 197
O=C(O)C(=O)O.c1ccc(CCN2CCCCC2Cc2c(-c3ccccc3)[nH]c3ccccc23)cc1 (centres unmarked) | 232
CN1CCC[C@@H]1Cc1c(-c2ccccc2)[nH]c2ccccc12 | 132
CN1CCC[C@H]1Cc1c(-c2ccccc2)[nH]c2ccccc12 | 133
CN1C2CCC(CC2)C1Cc1c(-c2ccccc2)[nH]c2ccccc12.O=C(O)C(=O)O (centres unmarked) | 193
CN1CCN(C)[C@@H](Cc2c(-c3ccccc3)[nH]c3ccccc23)C1.Cl.Cl | 253
CN1CCN(C)[C@@H](Cc2c(-c3ccccc3)[nH]c3c(Cl)cccc23)C1.Cl.Cl | 260
O=C(O)C(=O)O.c1ccc(CCN2CCCC(Cc3c(-c4ccccc4)[nH]c4ccccc34)C2)cc1 (centres unmarked) (hydrate or solvate) | 128
CN1CCN[C@@H](Cc2c(-c3cccc(F)c3)[nH]c3cc(F)ccc23)C1.Cl.Cl (hydrate or solvate) | 228
C[C@@H]1CC[C@H](Cc2c(-c3ccccc3)[nH]c3ccccc23)N1C.O=C(O)C(=O)O (relative stereo) | 183

Further lines, results first:

melting point [°C] | SMILES
182 | O=C(O)C(=O)O.c1ccc(CCN2CCCC2Cc2c(-c3ccccc3)[nH]c3ccccc23)cc1 (centres unmarked)
100 | O=C(O)C(=O)O.c1ccc(CCN2CCC(Cc3c(-c4ccccc4)[nH]c4ccccc34)C2)cc1 (centres unmarked)
185 | COCCN1CCCCC1Cc1c(-c2ccccc2)[nH]c2ccccc12.O=C(O)C(=O)O (centres unmarked)
235 | O=C(O)C(=O)O.c1ccc(CN2CCCCC2Cc2c(-c3ccccc3)[nH]c3ccccc23)cc1 (centres unmarked)
200 | CN1CCNC[C@@H]1Cc1c(-c2cccc(F)c2)[nH]c2cc(F)ccc12.Cl.Cl
176 | CN1C2CCC(C2)C1Cc1c(-c2ccccc2)[nH]c2ccccc12.Cl (centres unmarked)
234 | CN1CCCC(Cc2c(-c3ccccc3)[nH]c3ccccc23)C1.O=C(O)C(=O)O (centres unmarked) (hydrate or solvate)
150 | CN1CCCC[C@@H]1Cc1c(-c2ccccc2)[nH]c2ccccc12 (hydrate or solvate)

Biological target: human dopamine D2 receptor (Homo sapiens, UniProt P14416)
Settings: cited from earlier work

human dopamine D2 receptor, sequence (P14416 whole entry): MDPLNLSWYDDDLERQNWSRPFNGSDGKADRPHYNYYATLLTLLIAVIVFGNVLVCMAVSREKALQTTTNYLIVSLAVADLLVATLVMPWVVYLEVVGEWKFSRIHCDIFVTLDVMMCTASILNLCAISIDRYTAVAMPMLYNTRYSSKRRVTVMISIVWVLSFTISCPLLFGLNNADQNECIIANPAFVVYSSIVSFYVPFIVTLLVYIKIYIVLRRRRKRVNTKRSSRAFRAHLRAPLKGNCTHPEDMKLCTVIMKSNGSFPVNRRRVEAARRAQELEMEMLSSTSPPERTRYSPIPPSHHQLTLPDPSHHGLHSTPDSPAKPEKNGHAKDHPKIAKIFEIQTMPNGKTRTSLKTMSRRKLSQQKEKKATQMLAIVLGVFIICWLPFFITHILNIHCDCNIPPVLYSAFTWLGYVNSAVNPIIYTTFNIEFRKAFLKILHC

SMILES | activity at the human dopamine D2 receptor
COc1cccc(C(O)C2CCN(CCc3ccc(F)cc3)CC2)c1OC (stereo not drawn) [MDL-100,907, (+)-α-(2,3-dimethoxyphenyl)-1-[2-(4-fluorophenyl)-ethyl]-4-piperidinemethanol] | essentially devoid of activity

Test system: animal models
Settings: preclinical studies; cited from earlier work

SMILES | block of apomorphine-induced stereotyped behaviour
COc1cccc(C(O)C2CCN(CCc3ccc(F)cc3)CC2)c1OC (stereo not drawn) [MDL-100,907, (+)-α-(2,3-dimethoxyphenyl)-1-[2-(4-fluorophenyl)-ethyl]-4-piperidinemethanol] | failed to block apomorphine-induced stereotyped behaviour

Test system: schizophrenic patients
Settings: multicentre, placebo-controlled study; cited from earlier work

SMILES | efficacy for antipsychotic potential | neurological adverse effects
COc1cccc(C(O)C2CCN(CCc3ccc(F)cc3)CC2)c1OC (stereo not drawn) [MDL-100,907, (+)-α-(2,3-dimethoxyphenyl)-1-[2-(4-fluorophenyl)-ethyl]-4-piperidinemethanol] | demonstrated efficacy | no neurological adverse effects
